Measurements published in ChEMBL document CHEMBL5247684, “Novel C-Linked Isoquinoline Amides as LRRK2 Inhibitors for Treating Parkinson's Disease” (ACS Med Chem Lett, 2023).

Molecular target: Leucine-rich repeat serine/threonine-protein kinase 2 (Homo sapiens, UniProt Q5S007, G2019S)
Test: Inhibition of GST20-tagged truncated human LRRK2 G2019S mutant using fluorescein labeled LRRKtide peptide as substrate by Lantha screen assay

Leucine-rich repeat serine/threonine-protein kinase 2, sequence (Q5S007 whole entry G2019S, the tested form may be a part): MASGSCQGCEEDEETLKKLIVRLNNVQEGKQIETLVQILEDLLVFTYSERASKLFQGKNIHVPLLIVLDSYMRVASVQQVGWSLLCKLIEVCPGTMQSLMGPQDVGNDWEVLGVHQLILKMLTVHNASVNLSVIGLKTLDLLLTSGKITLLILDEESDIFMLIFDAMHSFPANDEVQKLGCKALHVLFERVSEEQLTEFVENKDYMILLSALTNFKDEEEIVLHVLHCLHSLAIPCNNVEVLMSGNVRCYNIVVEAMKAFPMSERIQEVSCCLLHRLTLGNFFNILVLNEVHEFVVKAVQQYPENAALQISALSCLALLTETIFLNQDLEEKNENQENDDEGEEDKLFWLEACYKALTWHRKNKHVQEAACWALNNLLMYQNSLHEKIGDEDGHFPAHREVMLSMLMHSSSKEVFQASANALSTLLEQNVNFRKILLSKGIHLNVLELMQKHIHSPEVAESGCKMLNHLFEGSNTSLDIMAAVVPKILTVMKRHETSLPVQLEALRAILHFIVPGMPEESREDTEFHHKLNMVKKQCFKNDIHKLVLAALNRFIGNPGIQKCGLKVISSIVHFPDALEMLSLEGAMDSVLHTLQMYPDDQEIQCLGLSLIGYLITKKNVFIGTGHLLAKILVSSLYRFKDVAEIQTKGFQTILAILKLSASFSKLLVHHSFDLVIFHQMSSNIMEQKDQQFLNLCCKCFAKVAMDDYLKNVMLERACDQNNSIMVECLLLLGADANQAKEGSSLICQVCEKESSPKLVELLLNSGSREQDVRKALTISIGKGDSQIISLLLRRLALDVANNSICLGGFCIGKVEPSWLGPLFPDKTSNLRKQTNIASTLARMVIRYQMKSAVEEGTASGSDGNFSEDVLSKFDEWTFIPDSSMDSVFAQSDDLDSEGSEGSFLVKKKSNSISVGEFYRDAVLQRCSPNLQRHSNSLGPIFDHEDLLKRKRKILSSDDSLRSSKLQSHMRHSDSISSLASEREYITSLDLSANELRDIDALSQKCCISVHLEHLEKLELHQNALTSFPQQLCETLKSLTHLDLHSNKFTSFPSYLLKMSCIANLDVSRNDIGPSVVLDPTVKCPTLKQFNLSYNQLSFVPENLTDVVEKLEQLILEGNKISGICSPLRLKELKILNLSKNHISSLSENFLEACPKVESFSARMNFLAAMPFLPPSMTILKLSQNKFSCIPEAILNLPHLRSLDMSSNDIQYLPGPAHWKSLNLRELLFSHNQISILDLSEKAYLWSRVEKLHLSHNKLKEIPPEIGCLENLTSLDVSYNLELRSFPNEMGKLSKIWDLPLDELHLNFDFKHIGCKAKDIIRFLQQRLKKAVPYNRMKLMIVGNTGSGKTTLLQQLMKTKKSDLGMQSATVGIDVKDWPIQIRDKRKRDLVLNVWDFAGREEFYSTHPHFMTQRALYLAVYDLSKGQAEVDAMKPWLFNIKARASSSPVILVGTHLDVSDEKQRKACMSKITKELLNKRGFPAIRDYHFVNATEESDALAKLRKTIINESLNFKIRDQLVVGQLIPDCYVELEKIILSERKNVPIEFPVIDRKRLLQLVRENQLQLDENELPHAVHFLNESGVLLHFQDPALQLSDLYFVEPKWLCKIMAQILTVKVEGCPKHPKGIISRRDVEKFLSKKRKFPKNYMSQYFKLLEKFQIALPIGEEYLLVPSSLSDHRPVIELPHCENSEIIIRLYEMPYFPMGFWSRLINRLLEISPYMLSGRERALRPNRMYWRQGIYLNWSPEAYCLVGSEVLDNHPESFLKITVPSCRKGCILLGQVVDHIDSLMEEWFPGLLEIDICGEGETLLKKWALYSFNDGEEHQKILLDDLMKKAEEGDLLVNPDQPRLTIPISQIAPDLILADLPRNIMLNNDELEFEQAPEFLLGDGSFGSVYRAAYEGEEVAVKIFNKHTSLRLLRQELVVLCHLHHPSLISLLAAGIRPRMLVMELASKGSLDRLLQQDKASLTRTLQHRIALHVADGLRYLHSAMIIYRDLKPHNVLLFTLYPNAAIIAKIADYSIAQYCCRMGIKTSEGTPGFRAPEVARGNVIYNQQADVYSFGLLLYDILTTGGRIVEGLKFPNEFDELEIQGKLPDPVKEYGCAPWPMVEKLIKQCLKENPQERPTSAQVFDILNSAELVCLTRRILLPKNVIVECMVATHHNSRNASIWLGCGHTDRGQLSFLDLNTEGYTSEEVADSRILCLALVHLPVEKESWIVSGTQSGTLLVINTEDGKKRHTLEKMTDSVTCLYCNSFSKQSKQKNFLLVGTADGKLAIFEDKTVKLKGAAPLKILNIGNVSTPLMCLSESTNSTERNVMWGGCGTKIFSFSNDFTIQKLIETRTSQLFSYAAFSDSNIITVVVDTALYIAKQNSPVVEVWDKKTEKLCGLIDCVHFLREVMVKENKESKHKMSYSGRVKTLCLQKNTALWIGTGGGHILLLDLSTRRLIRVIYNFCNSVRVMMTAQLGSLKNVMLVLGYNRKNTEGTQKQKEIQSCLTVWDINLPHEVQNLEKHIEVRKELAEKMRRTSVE

IC50: 81.3 pM
Compound: C[C@@]1(N2CC[C@@H](c3cc4cc(NC(=O)C5CC56CC6)ncc4cc3Cl)[C@H](F)C2)COC[C@@H]1O (stereo partly specified)
